Values of other authors, collected in patent US11241503B2, “Oxadiazole linkers and use thereof” (NewBio Therapeutics, Inc., priority 2017, dated 2022).

System: human carcinoma lines

**Q.** For `COc1cccc2c1C(=O)c1c(O)c3c(c(O)c1C2=O)C[C@@](O)(C(=O)CO)C[C@@H]3O[C@H]1C[C@H](N)[C@H](O)[C@H](C)O1` [doxorubicin, Doxorubicin], which IC50 is on record?
**A.** 100 to 200 nM
